The test system of one experiment is IL-1β release from THP-1 cells. Nature of the experiment: IL-1β Release Assay (Alternate Method), THP-1 cells. The conditions noted are these: Homo sapiens, THP-1, read-out: IL-1β % inhibition. Format: cell-based, human. In short, it runs like this: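 THP-1 cells differentiated 16 h with 100 ng/mL LPS plus 100 ng/mL IFN-γ, reprimed 2 h with 100 ng/mL LPS, pretreated 30 min with compound, then challenged 45 min with 250 uM BzATP (final). Supernatant IL-1β quantified by ELISA; percent inhibition from background-adjusted levels versus untreated cells.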
In general, inhibition refers to the drop in the measured response relative to a control, in per cent. For the compound `O=C(CC12CC3CC(CC(C3)C1)C2)Nc1ncnc2c1CCN(S(=O)(=O)c1ccccc1)C2` [Compound 143], the inhibition at 0.3 µM lay in the range of 0 to 25%.

As for `O=C(CC12CC3CC(CC(C3)C1)C2)Nc1ncnc2c1CCN(Cc1ccccc1)C2` [Compound 5, 2-Adamantan-1-yl-N-(7-benzyl-5,6,7,8-tetrahydro-pyrido[3,4-d]pyrimidin-4-yl)-acetamide], the inhibition at 0.3 µM was in the range of 25 to 50%.

With `O=C(CC12CC3CC(CC(C3)C1)C2)Nc1ncnc2c1CCN(CCO)C2` [Compound 18, 2-Adamantan-1-yl-N-[7-(2-hydroxy-ethyl)-5,6,7,8-tetrahydro-pyrido[3,4-d]pyrimidin-4-yl]-acetamide], the inhibition at 0.3 µM was in the range of 0 to 25%.

Still in this experiment, the particulars now being: at 0.3 μM; THP-1 cells.
As for `CC12CC3(C)CC(C)(C1)CC(CC(=O)Nc1ncnc4c1CCN(Cc1ccccc1)C4)(C2)C3` [Compound 344], the IL-1β % inhibition result is recorded as “+ (compound exhibited 0-25% inhibition at 0.3 μM)”.

In the case of `O=C(CC12CC3CC(CC(C3)C1)C2)Nc1ncnc2c1CCN(Cc1ccccc1OCCO)C2` [Compound 100], the IL-1β % inhibition entry is listed as “++ (compound exhibited 25-50% inhibition at 0.3 μM)”.

As for `Cc1cccc(C(=O)N2CCc3c(ncnc3NC(=O)C(C)(C)C34CC5CC(CC(C5)C3)C4)C2)c1` [Compound 358], the IL-1β % inhibition entry is “+ (compound exhibited 0-25% inhibition at 0.3 μM)”.

For `O=C(CC12CC3CC(CC(C3)C1)C2)Nc1ncnc2c1CCN(C(=O)C1CCCN1C(=O)C(F)(F)F)C2` (stereo not shown) [Compound 306], the IL-1β % inhibition entry was “+ (compound exhibited 0-25% inhibition at 0.3 μM)”.

Turning to `Cc1ccc(CN2CCc3c(ncnc3NC(=O)CC34CC5CC(CC(C5)C3)C4)C2)cc1F` [Compound 85], the IL-1β % inhibition result is “+ (compound exhibited 0-25% inhibition at 0.3 μM)”.

With `O=C(CC12CC3CC(CC(C3)C1)C2)Nc1ncnc2c1CCN(C(=O)c1ccc3ccccc3c1)C2` [Compound 290], the IL-1β % inhibition result is given as “++++ (compound exhibited 75% or greater inhibition at 0.3 μM)”.

For the compound `O=C(NCC12CC3CC(CC(C3)C1)C2)c1ncnc2c1CCN(Cc1ccc(F)cc1)C2` [Compound 338], the IL-1β % inhibition entry was “++++ (compound exhibited 75% or greater inhibition at 0.3 μM)”.

As to `Cc1ccc(CN2CCc3c(ncnc3NC(=O)CC3CCCCCC3)C2)s1` [Compound 125], the IL-1β % inhibition entry was “+ (compound exhibited 0-25% inhibition at 0.3 μM)”.

With `CCC(=O)N1CCc2c(ncnc2NC(=O)CC23CC4CC(CC(C4)C2)C3)C1` [Compound 223], the IL-1β % inhibition result is recorded as “+ (compound exhibited 0-25% inhibition at 0.3 μM)”.

For `O=C(CC12CC3CC(CC(C3)C1)C2)Nc1ncnc2c1CCN(Cc1ccc(F)c(Cl)c1)C2` [Compound 323], the IL-1β % inhibition result is recorded as “+ (compound exhibited 0-25% inhibition at 0.3 μM)”.

Turning to `O=C(CC12CC3CC(CC(C3)C1)C2)Nc1ncnc2c1CCN(C(=O)c1ccccc1Cl)C2` [Compound 294], the IL-1β % inhibition entry is recorded as “+++ (compound exhibited 50-75% inhibition at 0.3 μM)”.

On to `O=C(CC12CC3CC(CC(C3)C1)C2)Nc1ncnc2c1CCN(Cc1cc(C(F)(F)F)ccc1F)C2` [Compound 109], for which the IL-1β % inhibition result was “++ (compound exhibited 25-50% inhibition at 0.3 μM)”.

Regarding `CC12CC3CC(C)(C1)CC(CC(=O)Nc1ncnc4c1CCN(Cc1ccccc1Cl)C4)(C3)C2` [Compound 370], the IL-1β % inhibition entry is given as “++ (compound exhibited 25-50% inhibition at 0.3 μM)”.

In the case of `N#Cc1ccc(CN2CCc3c(ncnc3NC(=O)CC34CC5CC(CC(C5)C3)C4)C2)cc1` [Compound 42], the IL-1β % inhibition result is given as “+ (compound exhibited 0-25% inhibition at 0.3 μM)”.

`Cn1ccnc1CN1CCc2c(ncnc2NC(=O)CC23CC4CC(CC(C4)C2)C3)C1` [Compound 67]: the IL-1β % inhibition entry was “++ (compound exhibited 25-50% inhibition at 0.3 μM)”.

In the case of `O=C(CC12CC3CC(CC(C3)C1)C2)Nc1ncnc2c1CCN(C(=O)c1ccc(Cl)nc1)C2` [Compound 281], the IL-1β % inhibition result is “+ (compound exhibited 0-25% inhibition at 0.3 μM)”.

As for `O=C(CC12CC3CC(CC(C3)C1)C2)Nc1ncnc2c1CCN(Cc1ccc(C(F)(F)F)cc1)C2` [Compound 72], the IL-1β % inhibition entry was “+ (compound exhibited 0-25% inhibition at 0.3 μM)”.

Consider `Cc1nn(C)c(C)c1S(=O)(=O)N1CCc2c(ncnc2NC(=O)CC23CC4CC(CC(C4)C2)C3)C1` [Compound 198], for which the IL-1β % inhibition entry is given as “+ (compound exhibited 0-25% inhibition at 0.3 μM)”.

Take `O=C(CC1CCCCCC1)Nc1ncnc2c1CCN(Cc1c[nH]cn1)C2` [Compound 126]: the IL-1β % inhibition result is on record as “+ (compound exhibited 0-25% inhibition at 0.3 μM)”.

For `CC(C)(C(=O)Nc1ncnc2c1CCN(C(=O)c1c(F)cccc1Cl)C2)C12CC3CC(CC(C3)C1)C2` [Compound 362], the IL-1β % inhibition result is on record as “+ (compound exhibited 0-25% inhibition at 0.3 μM)”.

Take `CCS(=O)(=O)N1CCc2c(ncnc2NC(=O)CC23CC4CC(CC(C4)C2)C3)C1` [Compound 148]: the IL-1β % inhibition result is “+ (compound exhibited 0-25% inhibition at 0.3 μM)”.

Regarding `O=C(CC12CC3CC(CC(C3)C1)C2)Nc1ncnc2c1CCN(C(=O)C1COc3ccccc3C1)C2` (stereo not shown) [Compound 313], the IL-1β % inhibition result is “++++ (compound exhibited 75% or greater inhibition at 0.3 μM)”.

Regarding `NC(=O)COc1ccc(CN2CCc3c(ncnc3NC(=O)CC34CC5CC(CC(C5)C3)C4)C2)cc1` [Compound 91], the IL-1β % inhibition entry is given as “+ (compound exhibited 0-25% inhibition at 0.3 μM)”.

Turning to `O=C(CC12CC3CC(CC(C3)C1)C2)Nc1ncnc2c1CCN(Cc1ccc(F)cc1)C2` [Compound 123], the IL-1β % inhibition entry is “+ (compound exhibited 0-25% inhibition at 0.3 μM)”.

On to `O=C(CC12CC3CC(CC(C3)C1)C2)Nc1ncnc2c1CCN(Cc1ccc(-c3ccccn3)cc1)C2` [Compound 65], for which the IL-1β % inhibition result was “+ (compound exhibited 0-25% inhibition at 0.3 μM)”.

Consider `N#Cc1ccc(S(=O)(=O)N2CCc3c(ncnc3NC(=O)CC34CC5CC(CC(C5)C3)C4)C2)c(Cl)c1` [Compound 165], for which the IL-1β % inhibition entry was “+++ (compound exhibited 50-75% inhibition at 0.3 μM)”.

Regarding `O=C(CC12CC3CC(CC(C3)C1)C2)Nc1ncnc2c1CCN(CCCc1ccccc1)C2` [Compound 63], the IL-1β % inhibition entry was “+ (compound exhibited 0-25% inhibition at 0.3 μM)”.

In the case of `O=C(CC12CC3CC(CC(C3)C1)C2)Nc1ncnc2c1CCN(S(=O)(=O)c1ccccc1-c1ccccc1)C2` [Compound 194], the IL-1β % inhibition entry is “++++ (compound exhibited 75% or greater inhibition at 0.3 μM)”.

As for `O=C(CC12CC3CC(CC(C3)C1)C2)Nc1ncnc2c1CCN(C(=O)c1cccc(OC(F)(F)F)c1)C2` [Compound 269], the IL-1β % inhibition entry was “++ (compound exhibited 25-50% inhibition at 0.3 μM)”.

Turning to `O=C(CC12CC3CC(CC(C3)C1)C2)Nc1ncnc2c1CCN(C(=O)c1ccc(F)cc1F)C2` [Compound 277], the IL-1β % inhibition result is “+++ (compound exhibited 50-75% inhibition at 0.3 μM)”.

With `O=C(CC12CC3CC(CC(C3)C1)C2)Nc1ncnc2c1CCN(C(=O)c1cccnc1)C2` [Compound 237], the IL-1β % inhibition result is “+ (compound exhibited 0-25% inhibition at 0.3 μM)”.

The same experiment, now with this note: at 0.3 μM; THP-1 cells, BzATP-stimulated.
Regarding `COc1ccc(CN2CCc3c(ncnc3NC(=O)C34CC5CC(CC(C5)C3)C4)C2)cc1OCc1ccccc1` [Compound 592], the IL-1β % inhibition entry was “++++ (compound exhibited 75% or greater inhibition at 0.3 μM)”.

For the compound `O=C(c1cccc(Cl)c1Cl)N1CCc2c(ncnc2NC(=O)C23CC4CC(CC(C4)C2)C3)C1` [Compound 454], the IL-1β % inhibition entry was “++ (compound exhibited 25-50% inhibition at 0.3 μM)”.

Take `O=C(Nc1ncnc2c1CCN(S(=O)(=O)Cc1ccccc1)C2)C12CC3CC(CC(C3)C1)C2` [Compound 491]: the IL-1β % inhibition entry is given as “+ (compound exhibited 0-25% inhibition at 0.3 μM)”.

`O=C(c1ccc(Cl)cc1Cl)N1CCc2c(ncnc2NC(=O)C23CC4CC(CC(C4)C2)C3)C1` [Compound 430]: the IL-1β % inhibition result is listed as “++ (compound exhibited 25-50% inhibition at 0.3 μM)”.

With `O=C(c1ccc(F)cc1F)N1CCc2c(ncnc2NC(=O)C23CC4CC(CC(C4)C2)C3)C1` [Compound 449], the IL-1β % inhibition entry is on record as “++ (compound exhibited 25-50% inhibition at 0.3 μM)”.

Regarding `O=C(COc1ccc(Cl)cc1)N1CCc2c(ncnc2NC(=O)C23CC4CC(CC(C4)C2)C3)C1` [Compound 436], the IL-1β % inhibition result is reported as “++ (compound exhibited 25-50% inhibition at 0.3 μM)”.

With `O=C(Nc1ncnc2c1CCN(CC(c1ccccc1)c1ccccc1)C2)C12CC3CC(CC(C3)C1)C2` [Compound 553], the IL-1β % inhibition result was “++ (compound exhibited 25-50% inhibition at 0.3 μM)”.

As to `Cc1ccc(CN2CCc3c(ncnc3NC(=O)C34CC5CC(CC(C5)C3)C4)C2)cc1C` [Compound 585], the IL-1β % inhibition entry is recorded as “++ (compound exhibited 25-50% inhibition at 0.3 μM)”.

Consider `O=C(Nc1ncnc2c1CCN(Cc1ccc(Oc3ccccc3)cc1)C2)C12CC3CC(CC(C3)C1)C2` [Compound 576], for which the IL-1β % inhibition result is recorded as “+++ (compound exhibited 50-75% inhibition at 0.3 μM)”.

Consider `O=C(c1ccc(Cl)nc1)N1CCc2c(ncnc2NC(=O)C23CC4CC(CC(C4)C2)C3)C1` [Compound 453], for which the IL-1β % inhibition entry is “+ (compound exhibited 0-25% inhibition at 0.3 μM)”.

For the compound `CC(C)CCN1CCc2c(ncnc2NC(=O)C23CC4CC(CC(C4)C2)C3)C1` [Compound 583], the IL-1β % inhibition result is listed as “+ (compound exhibited 0-25% inhibition at 0.3 μM)”.

As to `Cc1cc(C(=O)N2CCc3c(ncnc3NC(=O)C34CC5CC(CC(C5)C3)C4)C2)c(C)o1` [Compound 463], the IL-1β % inhibition entry is reported as “++ (compound exhibited 25-50% inhibition at 0.3 μM)”.

In the case of `COc1ccc(CN2CCc3c(ncnc3NC(=O)C34CC5CC(CC(C5)C3)C4)C2)cc1` [Compound 562], the IL-1β % inhibition result is recorded as “+ (compound exhibited 0-25% inhibition at 0.3 μM)”.

For `O=C(c1cc(F)ccc1F)N1CCc2c(ncnc2NC(=O)C23CC4CC(CC(C4)C2)C3)C1` [Compound 451], the IL-1β % inhibition result is given as “+ (compound exhibited 0-25% inhibition at 0.3 μM)”.

Turning to `O=C(c1ccc(F)cc1)N1CCc2c(ncnc2NC(=O)C23CC4CC(CC(C4)C2)C3)C1` [Compound 423], the IL-1β % inhibition entry is reported as “++ (compound exhibited 25-50% inhibition at 0.3 μM)”.

The values above are taken from patent US7297700B2, “Bicycloheteroaryl compounds as P2X7 modulators and uses thereof” (Renovis, Inc., priority 2005, dated 2007).
